Measurements as given in patent US20220054658A1, “CONJUGATES” (Transfection Holdings Limited, priority 2018, published 2022).

Assays:
L. passim strain PRA-403 = assay: Lotmaria passim parasite uptake test; assay type: cell-based; details: 1 μM, room temperature, 45 min, microplate reader
C. elegans = assay: Protein uptake in C. elegans (phiLOV protein conjugates); assay type: in vivo, Caenorhabditis elegans; details: positive control
Description: The effective PhiLOV protein conjugate in M9 buffer was taken from the chemical ligation and purification experiments. The amount of M9 buffer added was determined by the final concentration required. Nematodes (30-40 per protein sample to be analysed) were picked and added to the protein solution, and the resulting suspension was treated with OP50 E. coli solution for nematode sustenance. The nematode suspension was incubated at 20° C. in the dark, and covered with aluminium foil.
Aliquots (10 to 25 μL) were taken at 24, 48 and 72 h. and transferred into a new Eppendorf tube at each time point and diluted with M9 buffer (200 μL). The new suspension was placed in ice (for 1-2 min) and then centrifuged at 10.000 rpm for 1 min. The supernatant was removed and the concentrated nematodes were washed again (2×200 μL). In the final wash, a residual volume (approx. 30 μL) was left with the nematodes.
For the microscopy studies, a 1.5% agarose solution in water was warmed up for 1-1.5 min in a standard household microwave (Power 4). Two drops of the agarose solution were placed on a glass slide and covered with another glass slide. After 1 min, the two slides were taken apart from each other carefully. On the slide where the agarose remained, 15-20 μL of the final C. elegans solution was placed. To this was added a 20 mM sodium azide solution (5 μL) to inhibit nematode mobility.
Vaseline was placed around the agarose area before replacing the top cover slip. The cover slips were not pressed together. The nematodes were then analysed using a Zeiss Axiskop 2 Plus microscope using a Hamamatsu Orca-ER (CA 742-95) camera. The images were resolved using OpenLab on a Mac operating system.
Feeding was repeated after 48 h. with addition of 2 μL of OP50 bacteria for feeding purposes, and the worm incubation was continued in the dark at […].
Using the approach described above, 11 protein conjugates were tested for their ability to deliver the phiLOV protein into nematodes. […] The location and efficiency of the delivery can be modulated by small structural modifications to the delivery vehicle, as shown by compounds P1-P11 (including negative control, positive control using compound 1 and untagged phiLOV protein control).

What does the source list for `CC1=CC(C)=[N+]2C1=Cc1ccc(CCCn3cc(CCNC(=O)/C=C/NC(=O)[C@@H]4OC(C)(C)OCC4(C)C)nn3)n1[B-]2(F)F` [Compound 1, (R,E)-N-((((3-[4,4-Difluoro-5,7-dimethyl-4-bora-3a,4a-diaza-s-indacene-3-yl]propyl)-1H-1,2,3-triazol-4-yl)ethylamino)-3-oxoprop-1-enyl)-2,2,5,5-tetramethyl-1,3-dioxane-4-carboxamide]?
fluorescence relative to derivative 2 (L. passim strain PRA-403): approximately % of the fluorescence of derivative 2; location of fluorescence in C. elegans (C. elegans; 24 h incubation): fluorescence could be observed in the pharynx, gut lumen and gut cells of both adults and larval stages of C. elegans; location of fluorescence in C. elegans (C. elegans; 48 h incubation): fluorescence was still localised in the pharynx, gut lumen and gut cells of both adults and larvae; location of fluorescence in C. elegans (C. elegans; 72 h incubation): fluorescence was still localised in the pharynx, gut lumen and gut cells of both adults and larvae; state of adult nematodes (C. elegans; 72 h point (same seen with M9 buffer negative control)): the adult nematodes were dead
